Non-standard residues stand in square brackets, D forms with d. No end group written: not given here.
Key:
[1] = tested on: WD-induced hepatic steatosis; assay: Liver H&E/ORO histology and hepatic lipid (TG, TC) quantification in WD-fed apoE−/− mice; type: in vivo; conditions: for Hepatic steatosis by H&E staining / HS by histology and lipid quantification: apoE−/− mice on WD; for Hepatic steatosis by H&E staining: 12 weeks; for HS by histology and lipid quantification: endpoint (FIG. 16A-C); for Hepatic TC, decreased by / Hepatic TG, decreased by: extracted hepatic lipids, endpoint, vs WD+H2O
Description: (§1) Eight-week-old male apolipoprotein E-deficient (apoE−/−) mice (B6.129P2-Apoetm1Unc/J, Stock No.: 002052) were obtained from Jackson Laboratories. Mice were fed Western diet (WD, 42% of calories from fat and 0.2% cholesterol by weight, Envigo TD.88137). After one week of WD feeding, blood was carefully collected from the facial vein to determine baseline plasma levels of total cholesterol (TC). […] All mice were maintained on a 12-hour light/dark cycle and had ad libitum access to food and water. Body weight and food intake were measured every one and three weeks, respectively
Histology processing was performed by the In Vivo Animal Core (IVAC) Histology Laboratory within the Unit for Laboratory Animal Medicine (ULAM) of the University of Michigan. Formalin-fixed tissues were processed through graded alcohols and cleared with xylene followed by infiltration with molten paraffin using an automated VIP5 or VIP6 tissue processor (TissueTek, Sakura-Americas). Following paraffin embedding using a Histostar Embedding Station (ThermoFisher Scientific), tissues were sectioned on a M 355S rotary microtome (ThermoFisher Scientific) at 4 μm thickness and mounted on glass slides. Following deparaffinization and hydration with xylene and graded alcohols, slides were stained for hematoxylin and eosin (H&E) using Harris hematoxylin (ThermoFisher Scientific, Cat #842), differentiated with Clarifier (ThermoFisher Scientific, Cat #7401), blued with bluing reagent (ThermoFisher Scientific, Cat #7301), stained with eosin Y, alcoholic (ThermoFisher Scientific, Cat #832), then dehydrated and cleared through graded alcohols and xylene and coverslipped with Micromount (Leica cat #3801731) using a Leica CV5030 automatic coverslipper. Immunohistochemical staining was performed on an IntelliPATH FLX automated immunohistochemical stainer (Biocare Medical, Cat #IPS0001US) and included blocking for endogenous peroxidases and non-specific binding, detection using a horseradish peroxidase biotin-free polymer based commercial detection system, disclosure with diaminobenzidine chromogen, and nuclear counterstaining with hematoxylin. Specific to F4/80, (Bio-Rad ABD Serotec, Cat #MCA497), the rat monoclonal primary antibody (clone CI:A3-1) was diluted to 1:400 in DaVinci Diluent (Biocare Medical, Cat #PD900) and incubated for 60 min followed by detection using Rat-on-Mouse HRP-Polymer, (Biocare Medical, Cat #RT517) 2-step probe-polymer incubation for 10 and 30 min respectively.
Livers were rapidly removed from the euthanized mice and kept at −80° C. Frozen liver samples (approximately 100 mg) were homogenized in PBS and centrifuged (14,000 RPM, 20 min). The supernatants were collected and analyzed for protein content by the Bio-Rad Bradford assay. To assess liver lipid composition, lipids were extracted from the supernatants using hexane ([…], 32293, Sigma-Aldrich) and isopropanol (≥99.5%, A426-4, Fisher Scientific) at a 3:2 ratio (v:v), and the hexane phase was left for evaporation for 48 h. The amount of liver TG or TC was determined spectrophotometrically using commercially available kits (Wako Chemicals). Data were normalized to protein levels and presented as μg TG or TC/mg protein.
(§2) Livers were rapidly removed from the euthanized mice, snap-frozen with liquid nitrogen, and kept at −80° C. Frozen liver samples (100 mg) were homogenized in PBS and centrifuged (14,000 RPM, 20 min). The supernatants were collected and analyzed for protein content using Bio-Rad Bradford assay. To assess liver lipid composition, lipids were extracted from the supernatants using hexane (≥99%, Sigma-Aldrich 32293) and isopropanol (≥99.5%, Fisher Scientific A428-4) at a 3:2 ratio (v:v), and the hexane phase was left for evaporation for 48 h. […] Liver diacylglycerols (DAG) were determined using ELISA Kit (Aviva Systems Biology, OKEH02607), according to the manufacturer's instructions. Hepatic TG, TC and DAG data were normalized to protein levels.

[2] = tested on: plasma lipids, adipokines and cytokines; assay: Plasma lipids, adipokines and cytokines in WD-fed apoE−/− mice; type: in vivo; conditions: for Time-dependent increase in plasma TC (baseline to endpoint): 1 week WD baseline vs 12 weeks of treatment; for Endpoint plasma HDL / Endpoint plasma LDL, reduced by / Endpoint plasma TC, reduced by: 6 hour fast; for Endpoint plasma HDL / Endpoint plasma LDL, reduced by / Endpoint plasma TC, reduced by / Plasma levels of glycine-containing tripeptide molecule, lower by: vs WD+H2O; for Plasma levels of glycine-containing tripeptide molecule, lower by: 12 weeks, glycine 0.67, DT-109/DT-110 1 mg/g; for Plasma HDL (lipid profile): endpoint (FIG. 15I); for Plasma glycine-containing tripeptide molecule: endpoint (FIG. 15K)
Description: as §1
Plasma levels of glycine tripeptide molecule, resistin, interleukin-6 (IL-6) and monocyte chemoattractant protein-1 (MCP1) were measured with a Luminex 200 chemistry analyzer (Luminex Corporation) at the Chemistry Laboratory of the MDRC using manufacturer-provided assay reagents and protocols (Millipore Multiplex, MMHMAG-44K). […]

[3] = tested on: adipose tissue gene expression; assay: qPCR of inflammatory cytokines in epididymal and subcutaneous adipose tissue of WD-fed apoE−/− mice; type: in vivo; conditions: endpoint
Description: as §1
Total RNA from liver or adipose tissue samples was extracted using QIAGEN's RNeasy kits (QIAGEN). RNA was reverse-transcribed into cDNA with SuperScript III and random primers (Invitrogen). Specific transcript levels were assessed by a real-time PCR system (Bio-Rad) using IQ SYBR Green Supermix (Bio-Rad) and the ΔΔCt threshold cycle method of normalization. Gene expression levels were normalized to glyceraldehyde 3-phosphate dehydrogenase (GAPDH). Primer pairs used for qPCR were obtained from Integrated DNA Technologies and are listed below: […]

diet-induced NASH = type: in vivo, mice; conditions: for NASH-diet-induced hepatomegaly and yellowish coloration: leucine 0.17, glycine 0.33, DT-109 0.125 or 0.5 mg/g/day
NASH-diet-induced HS = type: in vivo, mice; conditions: endpoint
Procedure: Frozen section processing was used for Oil Red O (ORO) staining. Formalin-fixed liver samples were cryoprotected in 20% sucrose at 4° C. overnight, blotted, then liquid nitrogen-snap frozen in O.C.T. Compound (Tissue-Tek, Cat #4583) and stored at −80° C. until ready for cryosectioning. Prior to sectioning, frozen blocks were brought up to about −20° C., then sectioned at 5 μm on a Cryotome SME (Thermo-Shandon, Cat #77200227). Slides were stored at −80° C. until stained. Prior to staining, liver slides were thawed to room temperature for 30 min. Slides were post-fixed in 10% Neutral Buffered Formalin for 20 min, rinsed in DDW, followed by rinsing in 60% Isopropanol before being placed in working ORO-isopropanol stain (Rowley Biochemical Inc., H-503-1B) for 5 min. Slides were then rinsed in 60% Isopropanol followed by three changes of DDW. Then, slides were nuclear counterstained in Harris Hematoxylin and mounted in Aqua-Mount (Lerner Laboratories, Cat #13800) aqueous mounting media.
as §2
Mice fed CD and administered H2O served as control.

Molecule	Hepatic steatosis by H&E staining [1]	HS by histology and lipid quantification [1]	Hepatic TC, decreased by [1]	Hepatic TG, decreased by [1]	Time-dependent increase in plasma TC (baseline to endpoint) [2]	Endpoint plasma HDL [2]	Endpoint plasma LDL, reduced by [2] [%]	Endpoint plasma TC, reduced by [2] [%]	Plasma levels of glycine-containing tripeptide molecule, lower by ([2]; apoE−/− mice on WD) [%]	Plasma HDL (lipid profile) ([2]; apoE−/− mice on WD)	Plasma glycine-containing tripeptide molecule ([2]; apoE−/− mice on WD)	Plasma MCP1 levels ([2]; endpoint)	MCP1 expression in EAT and SAT [3]	F4/80 immunostaining in liver (diet-induced NASH; endpoint, NASH-diet)	NASH-diet-induced hepatic fibrosis (Sirius Red and fibrosis scoring) (diet-induced NASH; endpoint, NASH-diet)	NASH-diet-induced hepatomegaly and yellowish coloration (diet-induced NASH; endpoint)	HS by ORO and lipid quantification (NASH-diet-induced HS)	further results
Gly-Gly-Leu [DT-109]	abolished	reduced HS	71%	73%	significantly attenuated	preserved	38	25	62	without the reduction in HDL	reduced	significantly reduced	significantly suppressed	attenuated	protective effects	markedly attenuated	significantly attenuated	Plasma TC and LDL (lipid profile) ([2]; apoE−/− mice on WD, DT-109 1 mg/g/day, endpoint): lowest TC and LDL; Adipocyte hypertrophy in EAT and SAT (diet-induced NASH; NASH-diet, 0.5 mg/g/day DT-109): decreased adipocyte hypertrophy; NAS (diet-induced NASH; endpoint, 0.5 mg/g/day DT-109): significantly decreased; Liver diacylglycerols (DAG) (NASH-diet-induced HS; 0.5 mg/g/day DT-109): significantly reduced
NCC(=O)O [glycine, reference compound]	abolished	reduced HS	76%	74%	significantly attenuated	35%	30	19	53	reduction in HDL	reduced	significantly reduced	significantly suppressed	attenuated	protective effects	markedly attenuated	significantly attenuated	–
CC(C)C[C@H](N)C(=O)O [leucine]	marked microvesicular and macrovesicular steatosis	–	no significant effects	no significant effects	–	–	–	–	–	–	–	–	–	significantly increased	but not leucine	–	marked HS	–
Gly-Gly-[dL] [DT-110]	abolished	–	63%	68%	–	–	–	–	56	–	–	significantly reduced	significantly suppressed	–	–	–	–	TNFα expression in EAT [3]: most significant effects

— patent US20230181673A1, “TRI-PEPTIDES AND TREATMENT OF METABOLIC, CARDIOVASCULAR AND INFLAMMATORY DISORDERS” (Diapin Therapeutics, LLC, priority 2018, published 2023)
